Series [1] has as its target [Pyruvate dehydrogenase (acetyl-transferring)] kinase isozyme 3, mitochondrial (Homo sapiens, UniProt Q15120). The series can be described thus: Inhibition of PDK3 (unknown origin) using PDC E1 as substrate measured after 30 mins by kinase-glo assay.
For series [2], the target named is [Pyruvate dehydrogenase (acetyl-transferring)] kinase isozyme 2, mitochondrial (Homo sapiens, UniProt Q15119). The series is described as follows: Inhibition of PDK2 (unknown origin) using PDC E1 as substrate measured after 30 mins by kinase-glo assay. (In general: Kinase-Glo measures the ATP left after a reaction by luminescence.)
For series [3], the target named is [Pyruvate dehydrogenase (acetyl-transferring)] kinase isozyme 4, mitochondrial (Homo sapiens, UniProt Q16654). The series can be described thus: Inhibition of PDK4 (unknown origin) using PDC E1 as substrate measured after 30 mins by kinase-glo assay.
Chain of [Pyruvate dehydrogenase (acetyl-transferring)] kinase isozyme 4, mitochondrial (Q16654 whole entry): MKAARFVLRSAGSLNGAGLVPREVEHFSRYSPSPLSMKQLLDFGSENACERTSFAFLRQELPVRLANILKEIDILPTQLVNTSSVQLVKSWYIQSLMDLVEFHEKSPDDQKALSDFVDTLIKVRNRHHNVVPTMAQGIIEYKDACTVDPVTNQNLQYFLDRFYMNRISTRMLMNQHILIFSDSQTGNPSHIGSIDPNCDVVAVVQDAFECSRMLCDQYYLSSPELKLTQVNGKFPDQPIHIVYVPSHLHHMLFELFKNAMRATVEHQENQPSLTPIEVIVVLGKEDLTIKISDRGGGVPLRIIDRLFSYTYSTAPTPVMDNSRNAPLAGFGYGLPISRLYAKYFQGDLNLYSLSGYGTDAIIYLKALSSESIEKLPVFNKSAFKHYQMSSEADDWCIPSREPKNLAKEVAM
The test system of series [4] is NCI-H1975. The series can be described thus: Cytotoxicity against human NCI-H1975 cells assessed as reduction in cell proliferation at 1 to 10 uM after 72 hrs under normoxic condition by MTT assay. As to conditions: nci-h1975, 72 h. The format is cell-based. (In general: Formazan colour is commonly taken as a measure of viable cells.)
The target in series [5] is Pyruvate dehydrogenase kinase (Homo sapiens) (UniProt Q15119+Q15120+Q16654+Q15118). The series is described as follows: Inhibition of PDK in human NCI-H1975 cells assessed as reduction in PDC phosphorylation at 10 uM measured after 12 hrs under hypoxic condition by Western blot analysis. The format is cell-based. For orientation: In western blotting, separated proteins are transferred to a membrane and probed.

For series [6], the target named is [Pyruvate dehydrogenase (acetyl-transferring)] kinase isozyme 1, mitochondrial (Homo sapiens, UniProt Q15118). The series is described as follows: Inhibition of PDK1 (unknown origin) using PDC E1 as substrate measured after 30 mins by kinase-glo assay.
Chain of [Pyruvate dehydrogenase (acetyl-transferring)] kinase isozyme 1, mitochondrial (Q15118 whole entry): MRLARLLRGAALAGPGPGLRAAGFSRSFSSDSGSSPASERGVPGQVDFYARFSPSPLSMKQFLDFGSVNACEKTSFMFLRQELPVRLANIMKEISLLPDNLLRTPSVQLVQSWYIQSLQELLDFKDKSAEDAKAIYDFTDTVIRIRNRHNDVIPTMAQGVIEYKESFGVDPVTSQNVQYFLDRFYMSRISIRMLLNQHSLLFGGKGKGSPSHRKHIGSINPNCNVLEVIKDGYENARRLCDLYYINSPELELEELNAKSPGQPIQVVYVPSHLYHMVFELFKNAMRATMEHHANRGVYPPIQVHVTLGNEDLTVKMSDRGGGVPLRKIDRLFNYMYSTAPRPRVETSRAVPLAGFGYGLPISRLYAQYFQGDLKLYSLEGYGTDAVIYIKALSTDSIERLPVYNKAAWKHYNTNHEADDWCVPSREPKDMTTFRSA
Series [7] relates to NCI-H1975. The series is described as follows: Cytotoxicity against human NCI-H1975 cells assessed as reduction in cell proliferation after 72 hrs under hypoxic condition by MTT assay. The note with it: NCI-H1975, 72 h.

Calls of active or inactive are those of the source. No cut-off for these calls is given here.

Chain of [Pyruvate dehydrogenase (acetyl-transferring)] kinase isozyme 3, mitochondrial (Q15120 whole entry): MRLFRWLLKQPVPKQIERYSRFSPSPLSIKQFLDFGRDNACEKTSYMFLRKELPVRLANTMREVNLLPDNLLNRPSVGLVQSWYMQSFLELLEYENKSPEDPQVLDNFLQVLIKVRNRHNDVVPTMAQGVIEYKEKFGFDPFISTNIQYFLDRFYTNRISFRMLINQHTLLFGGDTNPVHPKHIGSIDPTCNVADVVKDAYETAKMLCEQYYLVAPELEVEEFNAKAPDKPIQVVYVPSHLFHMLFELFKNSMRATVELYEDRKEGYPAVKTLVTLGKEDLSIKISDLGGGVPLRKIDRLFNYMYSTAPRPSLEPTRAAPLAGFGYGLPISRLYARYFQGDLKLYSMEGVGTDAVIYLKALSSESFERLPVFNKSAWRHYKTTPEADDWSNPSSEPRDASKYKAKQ

As to `OCCOc1ccc(CN2CCN(Cc3ccc(F)c(F)c3)[C@@H](CCO)C2)cc1`, the IC50 amounted to 3.9 µM in series [1], 1500 nM in series [2] and 6.8 µM in series [3]. Besides, the Activity entry in the series with NCI-H1975 [4] is on record as “Non-Toxic”.
On to `O=C(c1ccccc1)C(Cl)Cl`, for which, in series [5], the inhibition entry was “Active”.
Consider `CN(C)CCCn1ccnc1[C@H]1CCCN(C(=O)c2ccc3cc[nH]c3c2)C1`, for which the IC50 in series [1] came to 7.8 µM; in series [2] it was 2500 nM; in series [3] it was 12.3 µM; in series [6] it was 1260 nM. For the same compound, the Activity result in the series on NCI-H1975 [4] was “Non-Toxic”.
Regarding `O=C(NCc1ccccc1-n1cccn1)c1cc(-c2ccccc2O)n[nH]1`, the IC50 in series [1] is 4.8 µM; in series [2] it was 2600 nM; in series [3], 8.7 µM; in series [6], 620 nM. The EC50 in the series with NCI-H1975 [7] worked out at 4.28 µM. For the same compound, in the series on NCI-H1975 [4], the Activity entry is given as “Non-Toxic”.
`Cc1cnc(Cl)nc1-c1ccc(N(Cc2ccc(CNC(=O)C(F)F)cc2)C(=O)c2ccc(O)cc2O)cc1`: the Activity result with NCI-H1975 [4] is listed as “Non-Toxic”.

As usually defined, the IC50 is the midpoint of a concentration-inhibition curve. Low readings indicate greater potency, high ones weaker potency. Usually EC50 stands for the midpoint of the concentration-response curve.

Values taken from ChEMBL document CHEMBL4368877, “Discovery of potent pyruvate dehydrogenase kinase inhibitors and evaluation of their anti-lung cancer activity under hypoxia” (Medchemcomm, 2018).
